Patent US10174057B2, “Metallacrown complexes and methods of making the same” (THE REGENTS OF THE UNIVERSITY OF MICHIGAN, priority 2013, dated 2019)

Tests used:
[1] = Emission spectra and ligand energy levels (singlet, triplet, CT); format: physicochemical; conditions: for energy of the triplet state: determined on the 0-0 transition
Description: FIG. 3 is a graph depicting the corrected and normalized emission spectra of quinHA (10 mg/mL) under excitation at 290 in methanol at 77 K and Gd(III) MC (10 mg/mL) under excitation at 290 nm or 340 nm in methanol at 298 K and 77 K;
(§1) Luminescence data were collected on samples that were placed into 2.4 mm i.d. quartz capillaries or quartz Suprasil cells. Emission and excitation spectra were measured on a Horiba-Jobin-Yvon Fluorolog 3 spectrofluorimeter equipped with either a visible photomultiplier tube (PMT) (220-800 nm, R928P; Hamamatsu), a NIR solid-state InGaAs detector cooled to 77 K (800-1600 nm, DSS-IGA020L; Jobin-Yvon), or NIR PMTs (950-1450 nm, H10330-45; 950-1650 nm, H10330-75; Hamamatsu). All spectra were corrected for instrumental functions.
At 77 K, strong green luminescence centered at 510 nm with a weak band in the 325-460 nm range. The latter band disappeared upon enforcing a delay of 100 μs, so it can be assigned to a short-lived fluorescence while the green emission is phosphorescence. The energy of the triplet state of quinHA, determined on the 0-0 transition, can therefore be estimated as 21 000 cm−1 (476 nm).
The energy gap between ground and excited states for Gd(III) is very high and, therefore, it is impossible for the Gd(III) ion in the corresponding metallacrown complex to be sensitized with 300-400 nm excitation. It is believed that this feature can be used to determine the energy levels of the metallacrown complexes in the absence of energy transfer to the Ln(III) ion. The Gd(III) metallacrown complex was exposed to UV excitation into the ligand-based charge transfer band at 340 nm at room temperature, resulting in a weak broad-band emission with a maximum at 580-590 nm (FIG. 3). Lowering the temperature to 77 K led to a slight sharpening of the band and a shift of the maximum to 545-555 nm (FIG. 3). […] The position of the triplet state determined from the spectrum of Gd(III) metallacrown complex was the same as for quinHA within experimental error, 20 920 cm^−1 (478 nm). The position of the lowest excited singlet and the ligand-based charge transfer (CT) states were determined from the intersection of the absorption and emission (fluorescence) spectra of quinHA and Gd^3+[12-MC-4]2[24-MC-8], respectively, and found to be located at 29 850 cm^−1 (335 nm) and 21 560 cm^−1 ([…]). A proposed schematic diagram of the quinHA ligand's energy levels (singlet, triplet and CT) with respect to the energy levels of Yb(III), Nd(III) and Er(III) lanthanide ions and possible energy migration paths are shown in FIG. 4.

[2] = Absorption spectra in methanol; format: physicochemical; conditions: 298 K
From the text: FIG. 2 is a graph of the absorption spectra of Ln(III) MC complexes (2.04·10^−5 M, Ln(III)=Gd, Nd, Yb, Er) and quinaldichydroxamic acid (quinHA) (2.42·10^−4 M) in methanol at 298 K, where the absorption spectrum of quinHA was multiplied by 16 times;
Upon deprotonation and formation of the metallacrown framework, Ln(III)[12-MC-4]2[24-MC-8], a broad absorption appears in the near-visible region with an apparent maximum at 380 nm (ε≈5.5·10^4 M^−1 cm^−1) and cutoff at 470 nm. In FIG. 2, the results are shown for the Gd(III), Nd(III), Yb(III), and Er(III).

[3] = Luminescence lifetimes under excitation at 355 nm; format: physicochemical; conditions: for τobs: 298 K, excitation 355 nm; for q (inner sphere hydration number): calculated from kCH3OH and kCD3OD
Description: as §1
Luminescence lifetimes were determined under excitation at 355 nm provided by a Nd:YAG laser (YG 980; Quantel), while the signal was detected in the NIR by the aforementioned PMT (H10330-75). The output signal from the detectors was then fed to a 500 MHz bandpass digital oscilloscope (TDS 754C; Tektronix) and then transferred to a PC for treatment with Origin 8®. Luminescence lifetimes are averages of at least three independent measurements.
(§2) Luminescence spectra were recorded for the Ln(III) metallacrown complexes (Ln(III)=Yb, Nd, Er) in the solid state and in solution (CH3OH/CD3OD) using excitation at 420 nm or 370 nm.

[4] = Quantum yields in the NIR, absolute method using an integration sphere; format: physicochemical; conditions: 298 K, excitation 370 nm
Description: as §1
Quantum yields in the NIR were determined with a Fluorolog 3 spectrofluorimeter according to an absolute method using an integration sphere (GMP SA). Each sample was measured several times under slightly different experimental conditions. Estimated experimental error for quantum yields determination is 10%.
as §2

[5] = test system: HeLa (Human Epithelial Ovarian Carcinoma) cells; test: NIR epifluorescence microscopy on HeLa cells; format: cell-based
Description: The preparation of the Yb(III) Metallacrowns and the description of the NIR Epifluorescence Microscopy are applicable for both experiments.
Yb^3+[12-MC-4]2[24-MC-8] was prepared as described above, and was dissolved in DMSO at an appropriate concentration, and was used as such or was incubated with beads for incorporation therein.
NIR epifluorescence microscopy was performed with an Axio Observer Z1 fluorescence inverted microscope (Zeiss, Le Pecq, France) equipped with an EMCCD Evolve 512 photometric camera (Roper Scientific). The EMCCD Evolve 512 photometric camera was linked to a computer driving the acquisition software Axiovision (Zeiss). The inverted microscope was equipped with Zeiss objectives (immersion Plan Apochromat 63x (Numerical Aperture (NA)=1.4), Plan Neofluar 40x (NA=0.75), Plan Apochromat 20x (NA=0.8)). A Zeiss HXP-120 light source (metal halide) was used as the excitation system, and was combined with a UV cube filter unit as follows: 377 nm band pass 50 nm filter for excitation, and long pass 805 nm filter for Yb(III) emission in the NIR range. […]
NIR Epifluorescence Microscopy was used to observe the treated cells after 24 hours of incubation with Yb^3+[12-MC-4]2[24-MC-8] and the untreated cells. […] As illustrated in both FIGS. 8E and 8F, the emission in the NIR range for the untreated HeLa cells was not detected. […]

[6] = intersection of absorption and emission spectra
[7] = excitation 290 nm, 77 K, methanol

Compound | energy of the triplet state [1] | τobs ([3]; CD3OD, 0.1 mg/mL) | τobs ([3]; CD3OD, 1 mg/mL) | τobs ([3]; CH3OH, 0.1 mg/mL) | q (inner sphere hydration number) ([3]; CH3OH, 0.1 mg/mL) | τobs ([3]; CH3OH, 1 mg/mL) | q (inner sphere hydration number) ([3]; CH3OH, 1 mg/mL) | τobs ([3]; Solid) | QLn/%L (quantum yield) ([4]; CD3OD, 0.1 mg/mL) | QLn/%L (quantum yield) ([4]; CD3OD, 1 mg/mL) | QLn/%L (quantum yield) ([4]; CH3OH, 0.1 mg/mL) | QLn/%L (quantum yield) ([4]; CH3OH, 1 mg/mL) | QLn/%L (quantum yield) ([4]; Solid) | also measured
GdZn16(quinHA)16(OTf)3 [Gd(III) metallacrown complex] | 20 920 cm^−1 | – | – | – | – | – | – | – | – | – | – | – | – | emission maximum ([1]; 77 K, time delay of 100 μs): 510 nm; emission maximum ([1]; excitation 340 nm, 77 K): 545-555 nm; emission maximum ([1]; excitation 340 nm, room temperature, weak broad-band emission): 580-590 nm; position of the ligand-based charge transfer (CT) state [1, 6]: 21 560 cm^−1
O=C(NO)c1ccc2ccccc2n1 [quinHA, quinaldichydroxamic acid] | 21 000 cm^−1 | – | – | – | – | – | – | – | – | – | – | – | – | long wavelength absorption cutoff [2]: 340 nm; green luminescence (phosphorescence) centre [1, 7]: 510 nm; weak band (short-lived fluorescence) [1, 7]: 325-460 nm; emission upon UV excitation ([1]; excitation 290 nm, room temperature, methanol): did not display any detectable emission; position of the lowest excited singlet state [1, 6]: 29 850 cm^−1; melting point: 146 to 148 °C
ErZn16(quinHA)16(OTf)3 [Er(III)MC] | – | – | 11.40(3) μs | – | – | 1.25(1) μs | – | 5.73(2) μs | – | 3.60(6) · 10^−2% | – | 9.9(3) · 10^−4% | 4.2(1) · 10^−2% | –

Continued, in another order:

energy of the triplet state [1] | τobs ([3]; CD3OD, 0.1 mg/mL) | τobs ([3]; CD3OD, 1 mg/mL) | τobs ([3]; CH3OH, 0.1 mg/mL) | q (inner sphere hydration number) ([3]; CH3OH, 0.1 mg/mL) | τobs ([3]; CH3OH, 1 mg/mL) | q (inner sphere hydration number) ([3]; CH3OH, 1 mg/mL) | τobs ([3]; Solid) | QLn/%L (quantum yield) ([4]; CD3OD, 0.1 mg/mL) | QLn/%L (quantum yield) ([4]; CD3OD, 1 mg/mL) | QLn/%L (quantum yield) ([4]; CH3OH, 0.1 mg/mL) | QLn/%L (quantum yield) ([4]; CH3OH, 1 mg/mL) | QLn/%L (quantum yield) ([4]; Solid) | Compound | also measured
– | 4.00(1) μs | 4.11(3) μs | 1.16(1) μs | 0 | 1.16(1) μs | 0 | 1.79(2) μs | 1.38(1) % | 1.35(1) % | 0.40(1) % | 0.38(1) % | 1.13(4) % | NdZn16(quinHA)16(OTf)3 [Nd(III)MC] | –
– | 144.6(5) μs | 150.7(2) μs | 15.14(4) μs | 0 | 14.88(1) μs | 0 | 47.8(4) μs | 2.91(7) % | 2.88(2) % | 0.27(1) % | 0.25(1) % | 2.44(4) % | YbZn16(quinHA)16(OTf)3 [Yb(III)MC] | emission in the NIR range of treated cells ([5]; Experiment 1: 1 μM, 24 hours, λex=377 nm, long pass 805 nm, 500 ms exposure): unambiguously detected; Yb(III) emission in the NIR range of treated cells ([5]; both experiments (1 μM 24 h; 5 μM 11-12 h), short exposure times): unambiguously detected
